Data reported in US11834448B2, “2-amino-quinoline derivatives” (BIRDIE BIOPHARMACEUTICALS, INC., priority 2017, dated 2023).

How the values were obtained:
Human PBMCs [1] = test: Cytokine production in PBMCs: human IFN-α by ELISA; format: cell-based; set-up: key: ″+″ means that there was production of IFNa or IL-6 on PBMC; ″−″means that noproduction of IFNa or IL-6 on PBMC was detected; conditions: compounds tested at concentration of 10 uM; human PBMCs cultured 20-22 hours; supernatant ELISA
Description: (§1) The compound functionality was tested for some of the compounds prepared by stimulation and determination of cytokine production in PBMCs.
(§2) Human PBMCs were prepared from buffy coat obtained from healthy volunteer donor by Ficoll centrifugation and were adjusted to the final cell concentration to 1×10^6 cells/mL.
(§3) For evaluation of compound activities, 1×10^5 PBMCs were plated in a 96-well plate in 100 μl of RPMI 1640 complete medium (cat no. 31800-022, GIBCO by Life Technologies, Grand Island, NY, USA) supplemented with 10% fetal bovine serum, the tested compound was first dissolved in DMSO and further diluted in PBS and RPMI 1640 medium to the final concentration of […] (corresponding to 6.28 μg/mL), then 3-fold serially dilution was made in a 96-well round-bottom plate. 100 μl diluted compound was added to the same volume of 1×10^5 PBMCs plate and cultured for 20-22 hours at 37° C. in a humidified atmosphere of 5% CO2. The supernatant was collected for human IFN-α, IL12(p70) and IL-6 analysis by ELISA assay according to the manufacturer's instructions (Mabtech AB, Sweden). Resiquimod was used as a positive control.

Human PBMCs [2] = test: Cytokine production in PBMCs: human IL-6 by ELISA; format: cell-based; set-up: key: ″+″ means that there was production of IFNa or IL-6 on PBMC; ″−″means that noproduction of IFNa or IL-6 on PBMC was detected; conditions: compounds tested at concentration of 10 uM; human PBMCs cultured 20-22 hours; supernatant ELISA
Description: as §1, §2, §3

Row | SMILES | Production of IFNa on PBMC (Human PBMCs [1]) | Production of IL−6 on PBMC (Human PBMCs [2])
1 | CCOCc1nc2c(N)nc3cccc(OC)c3c2n1CC(C)(C)O [Compound 1, 1-(4-amino-2-(ethoxymethyl)-9-methoxy-1H-imidazo[4,5-c]quinolin-1-yl)-2-methylpropan-2-ol] | + | +
2 | CCOCc1nc2c(N)nc3cccc(OCC(C)C)c3c2n1C [Compound 18, 2-(ethoxymethyl)-9-isobutoxy-1-methyl-1H-imidazo[4,5-c]quinolin-4-amine] | + | +
3 | CCOCc1nc2c(N)nc3cccc(OCCC(C)(C)O)c3c2n1CC(C)C [Compound 12, 4-((4-amino-2-(ethoxymethyl)-1-isobutyl-1H-imidazo[4,5-c]quinolin-9-yl)oxy)-2-methylbutan-2-ol] | + | +
4 | CCOCc1nc2c(N)nc3cccc(OCC(C)(C)O)c3c2n1C [Compound 38, 1-((4-amino-2-(ethoxymethyl)-1-methyl-1H-imidazo[4,5-c]quinolin-9-yl)oxy)-2-methylpropan-2-ol] | + | +
5 | CCOCc1nc2c(N)nc3cccc(OC4CCOC4)c3c2n1C (stereo not drawn) [Compound 27, 2-(ethoxymethyl)-1-methyl-9-((tetrahydrofuran-3-yl)oxy)-1H-imidazo[4,5-c]quinolin-4-amine] | + | +
6 | COc1cccc2nc(N)c3nc(CCO)n(CC(C)(C)O)c3c12 [Compound 4, 1-(4-amino-2-(2-hydroxyethyl)-9-methoxy-1H-imidazo[4,5-c]quinolin-1-yl)-2-methylpropan-2-ol] | − | −
7 | CCOCc1nc2c(N)nc3cccc(OC)c3c2n1CC(C)C [Compound 2, 2-(ethoxymethyl)-1-isobutyl-9-methoxy-1H-imidazo[4,5-c]quinolin-4-amine] | + | +
8 | CCOCc1nc2c(N)nc3cccc(OC4CCNCC4)c3c2n1C [Compound 29, 2-(ethoxymethyl)-1-methyl-9-(piperidin-4-yloxy)-1H-imidazo[4,5-c]quinolin-4-amine] | + | +
9 | CCOCc1nc2c(N)nc3cccc(OC)c3c2n1CCOC(C)C [Compound 13, 2-(ethoxymethyl)-1-(2-isopropoxyethyl)-9-methoxy-1H-imidazo[4,5-c]quinolin-4-amine] | + | +
10 | CCCCCCCCCCCCCCCC(=O)NCCCOc1cccc2nc(N)c3nc(COCC)n(C)c3c12 [Compound 34, N-(3-((4-amino-2-(ethoxymethyl)-1-methyl-1H-imidazo[4,5-c]quinolin-9-yl)oxy)propyl)palmitamide] | + | +
11 | CCCCn1cc2c(n1)c(N)nc1cccc(OCCC(C)C)c12 [Compound 33, 2-butyl-9-(isopentyloxy)-2H-pyrazolo[3,4-c]quinolin-4-amine] | − | +
12 | CCOCc1nc2c(N)nc3cccc(OC)c3c2n1CCC(C)(C)O [Compound 14, 4-(4-amino-2-(ethoxymethyl)-9-methoxy-1H-imidazo[4,5-c]quinolin-1-yl)-2-methylbutan-2-ol] | + | +
